Experiment [1] in a line: ABTS radical scavenging activity (in vitro antioxidant capacity assay).
Method: The ABTS radical scavenging activity was determined according to Re et al. [19], with some modifications. A 250 µL ABTS solution was mixed with 10 µL of each pure polyphenols solutions (concentration 50 µg/mL), ethanol extracts, and digested extracts (concentrations: 0.3 mg/mL), and then was measured at the wavelength 724 nm using a UV/Vis spectrophotometer (BioTek, Model Epoch2TC, Winooski, VT, USA) after 15 min of incubation at room temperature. The inhibition percentage of ABTS discoloration was calculated using the fallowing equation:AA = [(Ac − Ap)/(Ac)] × 100%(1) where Ac is the absorbance of control, Ap is the absorbance of pure polyphenols solutions
A further experiment has as its target T1, thyroid peroxidase (TPO) (Sus scrofa, UniProt P09933).
T1 sequence (P09933 15-926): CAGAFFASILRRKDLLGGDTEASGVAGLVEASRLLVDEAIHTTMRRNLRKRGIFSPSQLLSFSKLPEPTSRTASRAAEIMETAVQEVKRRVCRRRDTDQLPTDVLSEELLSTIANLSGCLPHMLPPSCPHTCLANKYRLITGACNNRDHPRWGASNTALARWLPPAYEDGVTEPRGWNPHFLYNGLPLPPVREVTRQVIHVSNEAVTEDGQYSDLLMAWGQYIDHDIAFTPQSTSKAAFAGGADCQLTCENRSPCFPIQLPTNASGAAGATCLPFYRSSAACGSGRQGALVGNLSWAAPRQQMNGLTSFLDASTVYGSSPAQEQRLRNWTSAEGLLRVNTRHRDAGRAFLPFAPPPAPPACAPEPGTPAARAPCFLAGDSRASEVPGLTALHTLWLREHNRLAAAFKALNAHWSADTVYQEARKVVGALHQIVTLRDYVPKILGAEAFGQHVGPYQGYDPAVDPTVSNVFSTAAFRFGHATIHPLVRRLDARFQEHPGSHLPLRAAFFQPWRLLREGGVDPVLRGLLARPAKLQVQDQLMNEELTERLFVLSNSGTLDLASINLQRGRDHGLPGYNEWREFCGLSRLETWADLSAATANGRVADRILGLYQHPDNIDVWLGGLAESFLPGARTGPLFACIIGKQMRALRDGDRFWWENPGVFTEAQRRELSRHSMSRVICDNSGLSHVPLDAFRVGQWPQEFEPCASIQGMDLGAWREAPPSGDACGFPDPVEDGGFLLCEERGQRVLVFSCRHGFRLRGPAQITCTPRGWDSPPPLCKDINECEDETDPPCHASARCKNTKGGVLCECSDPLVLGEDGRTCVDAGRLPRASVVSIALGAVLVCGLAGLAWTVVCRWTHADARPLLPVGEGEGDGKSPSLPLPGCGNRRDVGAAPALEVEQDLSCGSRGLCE
The experiment is described as follows: Thyroid peroxidase inhibitory assay (guaiacol assay, Lineweaver–Burk plot). The conditions noted are these: for EFC50 (effective concentration inhibiting TPO in 50%) / Ki (TPO) / Vmax (TPO) / Mode of Inhibition (TPO): pure polyphenol solutions; for Mode of Inhibition (TPO): Lineweaver–Burk.

The mark [2] stands for this setting: pure polyphenols, values in text.

These results are taken from paper PMC6920844, “Mechanism of Action and Interactions between Thyroid Peroxidase and Lipoxygenase Inhibitors Derived from Plant Sources” (Biomolecules, 2019).

Marks after values point to notes of the source that are not given here.

For `COc1cc(C=CC(=O)O)cc(OC)c1O` (stereo in doubt) [Sinapinic acid, sinapinic acid], the “ABTS radical scavenging ability IC50” value in experiment [1] (setting [2]) was 84.33 µg/mL. Further, at thyroid peroxidase (TPO), the “EFC50 (effective concentration inhibiting TPO in 50%)” value is given as 25.42 ± 1.13 ^a µg/mL, the “Ki (TPO)” value was 45.92 ± 3.22 ^b µg/mL, the “Vmax (TPO)” value is 149.25 ± 6.26 ^a ΔAU/min and the “Mode of Inhibition (TPO)” value is listed as “Competitive”.
`O.Oc1cc(O)c2c(c1)O[C@H](c1ccc(O)c(O)c1)[C@@H](O)C2` [Catechin, catechin]: the “ABTS radical scavenging ability IC50” value in experiment [1] (pure chemical standards) is on record as 0.078 ± 0.008 ^a mg/mL. In addition, the “ABTS radical scavenging ability IC50” value in experiment [1] (setting [2]) is on record as 78.37 µg/mL. In addition, on thyroid peroxidase (TPO), the “EFC50 (effective concentration inhibiting TPO in 50%)” value was 29.76 ± 2.05 ^b µg/mL, the “Ki (TPO)” value is listed as 33.42 ± 1.35 ^a µg/mL, the “Vmax (TPO)” value was 144.93 ± 4.33 ^a ΔAU/min and the “Mode of Inhibition (TPO)” value is on record as “Competitive”.
`O=c1c(O)c(-c2ccc(O)cc2)oc2cc(O)cc(O)c12` [Kaempferol, kaempferol]: the “ABTS radical scavenging ability IC50” value in experiment [1] (pure chemical standards) was 0.337 ± 0.002 ^b mg/mL. In addition, on thyroid peroxidase (TPO), the midpoint of inhibition, the IC50, lay at 215 µM; the affinity corresponds to a Ki of 653 µM; the “Vmax (TPO)” value is recorded as 192.31 ± 8.34 ^b ΔAU/min; the “Mode of Inhibition (TPO)” value is reported as “Competitive”.
As for `O=c1cc(-c2ccc(O)cc2)oc2cc(O)cc(O)c12` [Apigenin, apigenin], in experiment [1] (pure chemical standards), the “ABTS radical scavenging ability IC50” value is given as 0.406 ± 0.003 ^c mg/mL. Further, in experiment [1] (setting [2]), the “ABTS radical scavenging ability IC50” value was 405.93 µg/mL. At thyroid peroxidase (TPO), the IC50 is 430 µM; the affinity, expressed as Ki, was 1250 µM; the “Vmax (TPO)” value was 149.25 ± 5.12 ^a ΔAU/min; the “Mode of Inhibition (TPO)” value is on record as “Uncompetitive”.
